Results as given in PMC8312882, “STING Ligand-Mediated Priming of Functional CD8^+ T Cells Specific for HIV-1-Protective Epitopes from Naive T Cells” (Journal of Virology, 2021).

System: naive T cells in PBMCs of HIV-1-seronegative individuals
Experiment: In vitro priming of epitope-specific CD8+ T cells from naive T cells (accelerated dendritic cell coculture, tetramer staining)
Type: cell-based, human
Method: Naive CD8^+ T-cell precursors specific for HLA-B*52:01-restricted, HLA-A*24:02-restricted, or HLA-C*12:02-restricted ones were primed in vitro by using the accelerated dendritic cell coculture protocol ([23], [24], [56], [57]). On day 0, frozen-thawed PBMCs of HIV-1-seronegative individuals having the HLA-B*52:01-C*12:02 haplotype or HLA-A*24:02 were suspended at 5 × 10^6 cells/well in 24-well tissue culture plates containing AIM-V medium (Invitrogen) supplemented with Flt3L (50 ng/ml; R&D Systems). AIM-V medium supplemented with a 10 μM concentration of each peptide and STING ligand 3′3′-cGAMP (10 μg/ml; InvivoGen) was added on day 1, and then FCS was further added to 10% by volume per well on day 2. On day 10, the cells were collected and then stained with epitope-specific tetramers.
HLA-B*52:01-RI8, -MI8, -SI8, or -WV8 peptide tetrameric complexes (tetramers) and HLA-A*24:02-RF10, HLA-C*12:02-IY11, -MY9, or -RL9 complexes were generated as previously described ([58]). CD8^+ T cells specific for a given epitope were stained with phycoerythrin (PE)-conjugated epitope-specific tetramers at 37°C for 30 min. The cells were then washed twice with RPMI 1640 medium containing 5% FCS (R5), followed by staining with allophycocyanin (APC)-conjugated anti-CD8 MAb (Dako, Denmark) and 7-aminoactinomycin D (7-AAD; BD Pharmingen) at 4°C for 30 min. Finally, the cells were washed twice with R5 and then analyzed by using a FACS Canto II. Primed T cells unstained with tetramer were used as a negative control to determine gating of the tetramer^+ population. The tetramer^+ population was determined based on the gating of the negative control ([…] of tetramer^+ cells).

[1] = HIV-1-uninfected individuals having HLA-B*52:01-C*12:02 haplotype

SMILES: Nc1nc2c(ncn2[C@@H]2O[C@@H]3COP(=O)(O)O[C@H]4[C@@H](O)[C@H](n5cnc6c(N)ncnc65)O[C@@H]4COP(=O)(O)O[C@H]3[C@H]2O)c(=O)[nH]1 [3′3′-cGAMP]
- priming of CD8+ T cells specific for HLA-B*52:01-restricted epitopes from naive T cells [1]: effectively primed CD8^+ T cells specific for 3 of 4 HLA-B*52:01-restricted epitopes
- priming of CD8+ T cells specific for HLA-C*12:02-restricted epitopes from naive T cells [1]: failed to prime those specific for all 3 HLA-C*12:02-restricted epitopes
- mean frequency of NefRF10-specific T cells ± 2 SD (stimulated with 3′3′-cGAMP (10 μg/ml) and NefRF10 peptide (10 μM) after Flt3 ligand 24 h, PBMCs from 7 HIV-1-seronegative HLA-A*24:02+ individuals, HLA-A*24:02-NefRF10 tetramer, 10-day culture, SD): 0.206% ± 0.186%
